Measurements as given in ChEMBL document CHEMBL4680315, “Synthesis and anticancer potential of novel 5,6-oxygenated and/or halogenated steroidal d-homo lactones” (Bioorg Med Chem, 2021).
Calls of active or inactive are those of the source. The calls are words filed in the database; no cut-off is given here.

Assays:
PC-3 = experiment: Cytotoxicity against human PC-3 cells assessed as cell growth inhibition measured after 72 hrs by MTT assay; format: functional, cell-based; settings: PC-3, 72 h
MCF7 = experiment: Cytotoxicity activity against human MCF7 assessed as inhibition of cell growth measured after 72 hrs by MTT assay; format: functional, cell-based; settings: MCF7, 72 h
A549 [1] = experiment: Cytotoxicity against human A549 cells assessed as cell growth inhibition measured after 72 hrs by MTT assay; format: functional, cell-based; settings: A549, 72 h
MDA-MB-231 [2] = experiment: Induction of apoptosis in human MDA-MB-231 cells assessed as late apoptotic cells by measuring red colour signal measured after 72 hrs by fluorescent double-staining method; format: functional, cell-based
MDA-MB-231 [3] = experiment: Cytotoxicity against human MDA-MB-231 cells assessed as cell growth inhibition measured after 72 hrs by MTT assay; format: functional, cell-based; settings: MDA-MB-231, 72 h
HeLa = experiment: Cytotoxicity against human Hela cells assessed as cell growth inhibition measured after 72 hrs by MTT assay; format: functional, cell-based
MRC5 = experiment: Cytotoxicity against human MRC5 cells assessed as cell growth inhibition measured after 72 hrs by MTT assay; format: cell-based; settings: MRC5, 72 h
HT-29 [4] = experiment: Cytotoxicity against human HT-29 cells assessed as cell growth inhibition measured after 72 hrs by MTT assay; format: functional, cell-based; settings: HT-29, 72 h
A549 [5] = experiment: Induction of apoptosis in human A549 cells assessed as late apoptotic cells by measuring red colour signal measured after 72 hrs by fluorescent double-staining method; format: functional, cell-based
HT-29 [6] = experiment: Induction of apoptosis in human HT-29 cells assessed as late apoptotic cells by measuring red colour signal measured after 72 hrs by fluorescent double-staining method; format: functional, cell-based
[7] = target: Estrogen receptor beta (Homo sapiens) (UniProt Q92731); experiment: Binding affinity to EYFP-tagged human ERbeta-LBD expressed in Saccharomyces cerevisiae FY250 strain assessed as fluorescence intensity at 10 uM incubated for 14 to 16 hrs by fluorescence spectroscopy based fluorescence microscopy relative to control; settings: time 14-16 hrs
[8] = target: T1, Estrogen receptor (Homo sapiens) (UniProt P03372); experiment: Binding affinity to EYFP-tagged human ERalpha-LBD expressed in Saccharomyces cerevisiae FY250 strain assessed as fluorescence intensity at 10 uM incubated for 14 to 16 hrs by fluorescence spectroscopy based fluorescence microscopy relative to control; settings: time 14-16 hrs
T1 sequence (whole entry): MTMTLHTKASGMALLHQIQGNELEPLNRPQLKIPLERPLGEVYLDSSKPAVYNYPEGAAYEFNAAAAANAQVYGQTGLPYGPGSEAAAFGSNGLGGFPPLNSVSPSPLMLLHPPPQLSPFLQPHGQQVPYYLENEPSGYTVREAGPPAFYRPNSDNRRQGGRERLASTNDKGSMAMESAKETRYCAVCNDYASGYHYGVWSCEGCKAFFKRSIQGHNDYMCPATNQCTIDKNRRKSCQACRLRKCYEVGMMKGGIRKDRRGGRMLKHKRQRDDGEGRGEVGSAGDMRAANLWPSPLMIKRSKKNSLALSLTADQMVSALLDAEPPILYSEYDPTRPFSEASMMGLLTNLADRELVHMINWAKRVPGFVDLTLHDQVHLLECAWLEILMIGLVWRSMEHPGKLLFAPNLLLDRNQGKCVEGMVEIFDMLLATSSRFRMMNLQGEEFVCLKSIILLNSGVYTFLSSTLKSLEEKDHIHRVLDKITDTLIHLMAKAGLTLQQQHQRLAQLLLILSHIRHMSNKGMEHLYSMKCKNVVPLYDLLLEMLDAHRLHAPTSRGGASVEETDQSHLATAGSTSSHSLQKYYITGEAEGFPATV

Sequence of Estrogen receptor beta (Homo sapiens) (Q92731 whole entry, the tested form may be a part): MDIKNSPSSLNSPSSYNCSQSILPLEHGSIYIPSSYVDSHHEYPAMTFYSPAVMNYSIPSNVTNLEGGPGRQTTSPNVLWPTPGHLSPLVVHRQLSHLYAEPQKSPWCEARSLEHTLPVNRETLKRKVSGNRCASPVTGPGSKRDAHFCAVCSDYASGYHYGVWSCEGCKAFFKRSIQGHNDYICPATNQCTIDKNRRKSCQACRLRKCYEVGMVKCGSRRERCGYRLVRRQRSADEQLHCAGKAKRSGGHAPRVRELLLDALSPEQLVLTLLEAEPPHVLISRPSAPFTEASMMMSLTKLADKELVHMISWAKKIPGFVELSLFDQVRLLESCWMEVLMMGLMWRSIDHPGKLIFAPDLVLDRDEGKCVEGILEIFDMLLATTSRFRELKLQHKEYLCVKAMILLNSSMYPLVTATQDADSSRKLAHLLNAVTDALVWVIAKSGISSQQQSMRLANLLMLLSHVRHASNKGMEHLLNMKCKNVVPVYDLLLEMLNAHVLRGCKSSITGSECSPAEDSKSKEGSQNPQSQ

Row | Structure (SMILES) | IC50 (PC-3) | IC50 (MCF7) | IC50 (A549 [1]) | Activity (MDA-MB-231 [2]) | IC50 (MDA-MB-231 [3]) | IC50 (HeLa) | IC50 (MRC5) | IC50 (HT-29 [4]) | Activity (A549 [5]) | Activity (HT-29 [6]) | Activity [7] | Activity [8]
1 | CC(=O)O[C@H]1CC[C@]2(C)[C@H]3CC[C@]4(C)COC(=O)C[C@H]4[C@@H]3C[C@@H]3O[C@@]32C1 | > 100 µM | > 100 µM | > 100 µM | Active | 6.16 µM | 99.2 µM | > 100 µM | > 100 µM |  |  |  | 
2 | CC(=O)O[C@H]1CC[C@]2(C)[C@H]3CC[C@]4(C)COC(=O)C[C@H]4[C@@H]3CC(=O)[C@@]2(O)C1 | > 100 µM | 81.8 µM | > 100 µM | Active | 23.7 µM | > 100 µM | > 100 µM | > 100 µM |  |  |  | 
3 | CC(=O)O[C@H]1CC[C@]2(C)[C@H]3CC[C@]4(C)COC(=O)C[C@H]4[C@@H]3C[C@@H](Cl)[C@@]2(Cl)C1 | > 100 µM | > 100 µM | 15.5 µM | Active | 23.7 µM | 25.9 µM | > 100 µM | 10.8 µM | Active | Active |  | 
4 | COc1cccc2c1C(=O)c1c(O)c3c(c(O)c1C2=O)C[C@@](O)(C(=O)CO)C[C@@H]3O[C@H]1C[C@H](N)[C@H](O)[C@H](C)O1 [DOXORUBICIN] | 84.2 µM |  | > 100 µM |  |  |  | 0.24 µM |  |  |  |  | 
5 | C[C@]12CCC(=O)C(O)=C1CC[C@@H]1[C@@H]2CC[C@]2(C)C(=O)CC[C@@H]12 [FORMESTANE] | 26.4 µM | > 100 µM | 38.6 µM |  |  | 3.36 µM | 0.1 µM | > 100 µM |  |  |  | 
6 | CC(=O)O[C@H]1CC[C@]2(C)[C@H]3CC[C@]4(C)COC(=O)C[C@H]4[C@@H]3C[C@@H](O)[C@@]2(F)C1 | > 100 µM | 42.9 µM | > 100 µM | Active | 9.1 µM | > 100 µM | > 100 µM | 21.2 µM |  |  | Active | 
7 | CC(=O)O[C@H]1CC[C@]2(C)[C@H]3CC[C@]4(C)COC(=O)C[C@H]4[C@@H]3C[C@H](Br)[C@]2(O)C1 | > 100 µM | 12.9 µM | > 100 µM |  | > 100 µM | > 100 µM | > 100 µM | > 100 µM |  |  |  | 
8 | CO[C@]12C[C@@H](O)CC[C@]1(C)[C@H]1CC[C@]3(C)COC(=O)C[C@H]3[C@@H]1C[C@H]2O | 24.8 µM | > 100 µM | > 100 µM | Active | 4.4 µM | 7.06 µM | > 100 µM | > 100 µM |  |  |  | 
9 | C[C@]12CC[C@H]3[C@@H](C[C@@H](O)[C@@]4(O)C[C@@H](O)CC[C@]34C)[C@@H]1CC(=O)OC2 | > 100 µM | 8.62 µM | 0.99 µM | Active | 13.8 µM | 93.6 µM | > 100 µM | 9.34 µM | Active | Active |  | 
10 | CC(=O)O[C@H]1CC[C@]2(C)[C@H]3CC[C@]4(C)COC(=O)C[C@H]4[C@@H]3C[C@@H](O)[C@@]2(Cl)C1 | > 100 µM | > 100 µM | > 100 µM |  | > 100 µM | 36.9 µM | > 100 µM | 72.3 µM |  |  |  | 
11 | CC(=O)O[C@H]1CC[C@]2(C)[C@H]3CC[C@]4(C)COC(=O)C[C@H]4[C@@H]3C[C@@H](O)[C@@]2(O)C1 | > 100 µM | > 100 µM | > 100 µM |  | > 100 µM | > 100 µM | > 100 µM | 86.6 µM |  |  | Active | 
12 | CO[C@@H]1C[C@H]2[C@@H]3CC(=O)OC[C@@]3(C)CC[C@@H]2[C@@]2(C)CC[C@H](O)C[C@]12O | 10.8 µM | 73.6 µM | > 100 µM | Active | 3.38 µM | 27 µM | > 100 µM | > 100 µM |  |  |  | 
13 | CC(=O)O[C@H]1CC[C@]2(C)[C@H]3CC[C@]4(C)COC(=O)C[C@H]4[C@@H]3C[C@@H](OC(C)=O)[C@@]2(O)C1 | 6.6 µM | 12.7 µM | > 100 µM | Active | 31 µM | 8.66 µM | > 100 µM | > 100 µM |  |  |  | 
14 | CC(=O)O[C@H]1CC[C@]2(C)[C@H]3CC[C@]4(C)COC(=O)C[C@H]4[C@@H]3C[C@@H](Br)[C@@]2(Br)C1 | > 100 µM | 34.9 µM | 36.9 µM | Active | 13.3 µM | 9.46 µM | > 100 µM | 16.2 µM | Active |  |  | Active
15 | CC(=O)O[C@H]1CC[C@]2(C)[C@H]3CC[C@]4(C)COC(=O)C[C@H]4[C@@H]3C[C@@H](O)[C@@]2(Br)C1 | > 100 µM | 86.6 µM | 26.1 µM | Active | 26.5 µM | 13.6 µM | > 100 µM | > 100 µM |  |  |  | 
16 | CC(=O)O[C@H]1CC[C@]2(C)[C@H]3CC[C@]4(C)COC(=O)C[C@H]4[C@@H]3C[C@H]3O[C@]32C1 | > 100 µM | 100 µM | > 100 µM | Active | 33.9 µM | 16.9 µM | > 100 µM | 14 µM |  |  |  | Active
17 | C[C@]12CC[C@H]3[C@@H](CC(=O)[C@@]4(O)CC(=O)CC[C@]34C)[C@@H]1CC(=O)OC2 | > 100 µM | > 100 µM | > 100 µM | Active | 4.81 µM | 40.1 µM | > 100 µM | 42.2 µM |  |  |  | Active
18 | C[C@]12CC[C@H]3[C@@H](CC(=O)[C@@]4(O)C[C@@H](O)CC[C@]34C)[C@@H]1CC(=O)OC2 | > 100 µM | > 100 µM | > 100 µM | Active | 6.16 µM | 33.6 µM | > 100 µM | > 100 µM |  |  |  | 
